Laboratory results published in ChEMBL document CHEMBL1153302, “Synthesis and biological evaluation on novel analogs of 9-methylstreptimidone, an inhibitor of NF-kappaB” (Bioorg Med Chem Lett, 2009).
Converted amounts (≈) assume the structure as drawn. The source made the active and inactive calls. The calls are words filed in the database; no cut-off is given here.

Assays:
RAW264.7 [1] = assay: Cytotoxicity against mouse RAW264.7 cells by MTT colorimetric assay in presence of LPS; format: functional; conditions: read-out: ED50 (the source's name)
[2] = Inhibition of NF-kappaB in LPS-induced mouse RAW264.7 cells assessed as inhibition of NO production after 24 hrs; format: cell-based
Jurkat = assay: Induction of apoptosis in human Jurkat cells; format: functional, cell-based
T-cell = assay: Induction of apoptosis in T cell leukemia; format: functional, cell-based
RAW264.7 [3] = assay: Inhibition of NF-kappaB in LPS-induced mouse RAW264.7 cells assessed as inhibition of iNOS expression after 24 hrs; format: cell-based
[4] = Mus musculus, RAW264.7, 24 h, read-out: IC50

CCCCCCCCCCCCSC(=O)CC1CC(=O)N(C)C(=O)C1
EC50 (RAW264.7 [1]): 8 µg/mL | IC50 [2, 4]: 2 µg/mL (≈ 5.41 µM)

CCCCCCNC(=O)CC1CC(=O)NC(=O)C1
EC50 (RAW264.7 [1]): > 30 µg/mL | IC50 [2, 4]: > 30 µg/mL

CCCCCCOC(=O)CC1CC(=O)NC(=O)C1
EC50 (RAW264.7 [1]): > 30 µg/mL | IC50 [2, 4]: > 30 µg/mL

CCCCCCCCCCCCSC(=O)CC1CC(=O)NC(=O)C1
EC50 (RAW264.7 [1]): 15 µg/mL | IC50 [2, 4]: 1 µg/mL (≈ 2.81 µM)

CCCCCCCCCCCCNC(=O)CC1CC(=O)NC(=O)C1
EC50 (RAW264.7 [1]): 25 µg/mL | IC50 [2, 4]: > 30 µg/mL

O=C1CC(C/C=C/C(=O)c2cccc(OCc3ccccc3)c2)CC(=O)N1
EC50 (RAW264.7 [1]): 8 µg/mL | IC50 [2, 4]: 3 µg/mL (≈ 8.26 µM)

O=C(O)CC1CC(=O)NC(=O)C1
EC50 (RAW264.7 [1]): > 30 µg/mL | IC50 [2, 4]: > 30 µg/mL

CC(C)(C)OC(=O)/C=C/CC1CC(=O)NC(=O)C1
EC50 (RAW264.7 [1]): > 30 µg/mL | IC50 [2, 4]: 30 µg/mL (≈ 118 µM)

O=C1CC(CC(=O)NC2CCCCC2)CC(=O)N1
EC50 (RAW264.7 [1]): > 30 µg/mL | IC50 [2, 4]: > 30 µg/mL

CCCCCCCCCCCCOC(=O)CC1CC(=O)NC(=O)C1
EC50 (RAW264.7 [1]): > 30 µg/mL | IC50 [2, 4]: > 30 µg/mL

CCCCCCCCCCCCSC(=O)CC1CC(=O)N(CC)C(=O)C1
EC50 (RAW264.7 [1]): 20 µg/mL | IC50 [2, 4]: 2 µg/mL (≈ 5.21 µM)

CCCCCCSC(=O)CC1CC(=O)NC(=O)C1
EC50 (RAW264.7 [1]): > 30 µg/mL | IC50 [2, 4]: 15 µg/mL (≈ 55.3 µM)

C/C=C\C(C)=C\[C@@H](C)C(=O)C[C@H](O)CC1CC(=O)NC(=O)C1
Activity (Jurkat): Active | Activity (T-cell): Active | IC50 ([2]; raw264.7): Active | Activity (RAW264.7 [3]): Active
